Assay results taken from patent US12723063B2, “GIPR-agonist compounds” (Eli Lilly and Company, priority 2019, dated 2026).
*1 amine or outer side, *2 acyl side, *3 side chain or, on linkers, in order; H or OH if unused. Where a SMILES comes first, the peptide text is derived from it. Side-chain parts run from the residue outwards. [ ]: non-standard residue; d: D form. The star is where a group is joined. C20 diacid = O=C(O)CCCCCCCCCCCCCCCCCCC(=O)*; C18 diacid = O=C(O)CCCCCCCCCCCCCCCCC(=O)*; αMePhe(2-F) = C[C@](N)(Cc1ccccc1F)C(=O)O; γGlu = O=C(O)[C@H](CCC(=O)[*:2])N[*:1]; 4Pal = N[C@@H](Cc1ccncc1)C(=O)O; αMeL = CC(C)C[C@](C)(N)C(=O)O; AEEA = NCCOCCOCC(=O)O; Aib = CC(C)(N)C(=O)O

Biological target: T1, human GLP-1R (Homo sapiens, UniProt P43220)
T1 construct: expressed in transfected cells; crude membranes
T1 sequence (P43220 24-463): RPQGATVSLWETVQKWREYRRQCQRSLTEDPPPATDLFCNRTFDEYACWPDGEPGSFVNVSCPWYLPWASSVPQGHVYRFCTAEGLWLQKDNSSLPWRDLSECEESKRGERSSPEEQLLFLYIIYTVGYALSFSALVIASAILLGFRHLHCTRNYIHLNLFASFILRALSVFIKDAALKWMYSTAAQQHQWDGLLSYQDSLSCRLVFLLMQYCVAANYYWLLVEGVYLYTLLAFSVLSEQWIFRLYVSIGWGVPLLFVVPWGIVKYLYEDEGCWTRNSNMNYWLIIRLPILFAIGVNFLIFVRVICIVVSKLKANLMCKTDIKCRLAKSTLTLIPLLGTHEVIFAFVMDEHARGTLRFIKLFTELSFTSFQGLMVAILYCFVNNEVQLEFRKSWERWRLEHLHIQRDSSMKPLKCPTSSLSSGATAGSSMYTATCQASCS
Test: [125I]-GLP-1 binding, SPA with WGA beads, 0.1% bacitracin
Settings: geometric mean, read-out: hGLP1R Ki
Method in brief: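 Binding buffer was 25 mM HEPES pH 7.4 with 2.5 mM CaCl2, 1 mM MgCl2, 0.1% (w/v) bacitracin, 0.003% Tween-20 and EDTA-free protease inhibitors. Four-parameter regression gave IC50, converted to Ki (geometric mean, SEM, n independent days).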

CC[C@H](C)[C@H](NC(=O)[C@H](CO)NC(=O)[C@H](Cc1ccc(O)cc1)NC(=O)[C@H](CC(=O)O)NC(=O)[C@H](CO)NC(=O)[C@@H](NC(=O)[C@H](Cc1ccccc1)NC(=O)[C@@H](NC(=O)CNC(=O)[C@H](CCC(=O)O)NC(=O)[C@@H](C)NC(=O)[C@@H](N)Cc1ccc(O)cc1)[C@@H](C)O)[C@@H](C)CC)C(=O)N[C@@H](CC(C)C)C(=O)N[C@@H](CC(C)C)C(=O)N[C@@H](CC(=O)O)C(=O)N[C@@H](CCCCN)C(=O)N[C@@H](CCCCNC(=O)COCCOCCNC(=O)COCCOCCNC(=O)CC[C@H](NC(=O)CCCCCCCCCCCCCCCCCCC(=O)O)C(=O)O)C(=O)N[C@@H](C)C(=O)N[C@@H](CCC(N)=O)C(=O)N[C@@H](CCC(N)=O)C(=O)N[C@@H](CC(=O)O)C(=O)N[C@@H](Cc1ccccc1)C(=O)N[C@H](C(=O)N[C@@H](CC(N)=O)C(=O)N[C@@H](Cc1c[nH]c2ccccc12)C(=O)N[C@@H](CC(C)C)C(=O)N[C@@H](CC(C)C)C(=O)N[C@@H](C)C(=O)N[C@@H](CCC(N)=O)C(=O)NCC(=O)N1CCC[C@H]1C(=O)N[C@@H](CO)C(=O)N[C@@H](CO)C(=O)NCC(=O)N[C@@H](C)C(=O)N1CCC[C@H]1C(=O)N1CCC[C@H]1C(=O)N1CCC[C@H]1C(=O)N[C@@H](CO)C(N)=O)C(C)C [Example 11] (H-Y[dA]EGTFISDYSILLDKK([AEEA-AEEA-γGlu-C20 diacid])AQQDFVNWLLAQGPSSGAPPPS-NH2)
Ki: 85.9 nM

CC[C@H](C)[C@H](NC(=O)[C@H](CCCCN)NC(=O)[C@H](CC(=O)O)NC(=O)[C@H](CC(C)C)NC(=O)[C@](C)(CC(C)C)NC(=O)[C@@H](NC(=O)[C@H](CO)NC(=O)[C@H](Cc1ccc(O)cc1)NC(=O)[C@H](CC(=O)O)NC(=O)[C@H](CO)NC(=O)[C@@H](NC(=O)[C@H](Cc1ccccc1)NC(=O)[C@@H](NC(=O)CNC(=O)[C@H](CCC(=O)O)NC(=O)C(C)(C)NC(=O)[C@@H](N)Cc1ccc(O)cc1)[C@@H](C)O)[C@@H](C)CC)[C@@H](C)CC)C(=O)N[C@@H](Cc1c[nH]cn1)C(=O)N[C@@H](CCC(N)=O)C(=O)NC(C)(C)C(=O)N[C@@H](CC(=O)O)C(=O)N[C@@H](Cc1ccccc1)C(=O)N[C@H](C(=O)N[C@@H](CCC(=O)O)C(=O)N[C@@H](Cc1ccncc1)C(=O)N[C@@H](CCCCNC(=O)COCCOCCNC(=O)COCCOCCNC(=O)CC[C@H](NC(=O)CCCCCCCCCCCCCCCCC(=O)O)C(=O)O)C(=O)N[C@@H](CC(C)C)C(=O)N[C@@H](CCC(=O)O)C(=O)NCC(=O)NCC(=O)N1CCC[C@H]1C(=O)N[C@@H](CO)C(=O)N[C@@H](CO)C(=O)NCC(=O)N[C@@H](C)C(=O)N1CCC[C@H]1C(=O)N1CCC[C@H]1C(=O)N1CCC[C@H]1C(=O)N[C@@H](CO)C(N)=O)C(C)C [Example 110] (H-Y[Aib]EGTFISDYSI[αMeL]LDKIHQ[Aib]DFVE[4Pal]K([AEEA-AEEA-γGlu-C18 diacid])LEGGPSSGAPPPS-NH2)
Ki: > 908 nM

CC[C@H](C)[C@H](NC(=O)[C@H](CO)NC(=O)[C@H](Cc1ccc(O)cc1)NC(=O)[C@H](CC(=O)O)NC(=O)[C@H](CO)NC(=O)[C@@H](NC(=O)[C@H](Cc1ccccc1)NC(=O)[C@@H](NC(=O)CNC(=O)[C@H](CCC(=O)O)NC(=O)C(C)(C)NC(=O)[C@@H](N)Cc1ccc(O)cc1)[C@@H](C)O)[C@@H](C)CC)C(=O)N[C@@H](CC(C)C)C(=O)N[C@@H](CC(C)C)C(=O)N[C@@H](CC(=O)O)C(=O)N[C@@H](CCCCN)C(=O)N[C@@H](CCCCNC(=O)COCCOCCNC(=O)COCCOCCNC(=O)CC[C@H](NC(=O)CCCCCCCCCCCCCCCCC(=O)O)C(=O)O)C(=O)N[C@@H](Cc1c[nH]cn1)C(=O)N[C@@H](CCC(N)=O)C(=O)NC(C)(C)C(=O)N[C@@H](CC(=O)O)C(=O)N[C@@H](Cc1ccccc1)C(=O)N[C@H](C(=O)N[C@@H](CCC(=O)O)C(=O)N[C@@H](Cc1ccncc1)C(=O)N[C@@H](CC(C)C)C(=O)N[C@@H](CC(C)C)C(=O)N[C@@H](C)C(=O)NCC(=O)NCC(=O)N1CCC[C@H]1C(=O)N[C@@H](CO)C(=O)N[C@@H](CO)C(=O)NCC(=O)N[C@@H](C)C(=O)N1CCC[C@H]1C(=O)N1CCC[C@H]1C(=O)N1CCC[C@H]1C(=O)N[C@@H](CO)C(N)=O)C(C)C [Example 22]
Ki: 388 nM

CC[C@H](C)[C@H](NC(=O)[C@H](CO)NC(=O)[C@H](Cc1ccc(O)cc1)NC(=O)[C@H](CC(=O)O)NC(=O)[C@H](CO)NC(=O)[C@@H](NC(=O)[C@](C)(Cc1ccccc1F)NC(=O)[C@@H](NC(=O)CNC(=O)[C@H](CCC(=O)O)NC(=O)C(C)(C)NC(=O)[C@@H](N)Cc1ccc(O)cc1)[C@@H](C)O)[C@@H](C)CC)C(=O)N[C@@H](CC(C)C)C(=O)N[C@@H](CC(C)C)C(=O)N[C@@H](CC(=O)O)C(=O)N[C@@H](CCCCN)C(=O)N[C@H](C(=O)N[C@@H](Cc1c[nH]cn1)C(=O)N[C@@H](CCC(N)=O)C(=O)NC(C)(C)C(=O)N[C@@H](CC(=O)O)C(=O)N[C@@H](Cc1ccccc1)C(=O)N[C@H](C(=O)N[C@@H](CCC(=O)O)C(=O)N[C@@H](Cc1ccncc1)C(=O)N[C@@H](CCCCNC(=O)COCCOCCNC(=O)COCCOCCNC(=O)CC[C@H](NC(=O)CCCCCCCCCCCCCCCCCCC(=O)O)C(=O)O)C(=O)N[C@@H](CC(C)C)C(=O)N[C@@H](CCC(=O)O)C(=O)NCC(=O)NCC(=O)N1CCC[C@H]1C(=O)N[C@@H](CO)C(=O)N[C@@H](CO)C(=O)NCC(=O)N[C@@H](C)C(=O)N1CCC[C@H]1C(=O)N1CCC[C@H]1C(=O)N1CCC[C@H]1C(=O)N[C@@H](CO)C(N)=O)C(C)C)[C@@H](C)CC [Example 119] (H-Y[Aib]EGT[αMePhe(2-F)]ISDYSILLDKIHQ[Aib]DFVE[4Pal]K([AEEA-AEEA-γGlu-C20 diacid])LEGGPSSGAPPPS-NH2)
Ki: 723 nM

CC[C@H](C)[C@H](NC(=O)[C@H](CO)NC(=O)[C@H](Cc1ccc(O)cc1)NC(=O)[C@H](CC(=O)O)NC(=O)[C@H](CO)NC(=O)[C@@H](NC(=O)[C@](C)(Cc1ccccc1F)NC(=O)[C@@H](NC(=O)CNC(=O)[C@H](CCC(=O)O)NC(=O)C(C)(C)NC(=O)[C@@H](N)Cc1ccc(O)cc1)[C@@H](C)O)[C@@H](C)CC)C(=O)N[C@@H](CC(C)C)C(=O)N[C@@H](CC(C)C)C(=O)N[C@@H](CC(=O)O)C(=O)N[C@@H](CCCCN)C(=O)N[C@H](C(=O)N[C@@H](Cc1c[nH]cn1)C(=O)N[C@@H](CCC(N)=O)C(=O)NC(C)(C)C(=O)N[C@@H](CC(=O)O)C(=O)N[C@@H](Cc1ccccc1)C(=O)N[C@H](C(=O)N[C@@H](CCC(=O)O)C(=O)N[C@@H](Cc1ccncc1)C(=O)N[C@@H](CCCCNC(=O)COCCOCCNC(=O)COCCOCCNC(=O)CC[C@H](NC(=O)CCCCCCCCCCCCCCCCCCC(=O)O)C(=O)O)C(=O)N[C@@H](CC(C)C)C(=O)N[C@@H](CCC(=O)O)C(=O)N[C@@H](C)C(=O)NCC(=O)N1CCC[C@H]1C(=O)N[C@@H](CO)C(=O)N[C@@H](CO)C(=O)NCC(=O)N[C@@H](C)C(=O)N1CCC[C@H]1C(=O)N1CCC[C@H]1C(=O)N1CCC[C@H]1C(=O)N[C@@H](CO)C(N)=O)C(C)C)[C@@H](C)CC [Example 120] (H-Y[Aib]EGT[αMePhe(2-F)]ISDYSILLDKIHQ[Aib]DFVE[4Pal]K([AEEA-AEEA-γGlu-C20 diacid])LEAGPSSGAPPPS-NH2)
Ki: > 912 nM
